Results taken from article PMC9511441, “Semisynthetic teicoplanin derivatives with dual antimicrobial activity against SARS-CoV-2 and multiresistant bacteria” (Scientific Reports, 2022).
Entries after “also recorded” stand apart in the source; their conditions may differ. Read-outs that look alike come from different tables or passages of the source.

Tests used:
[1] = test system: SARS-CoV-2; assay: microbe, parasite or virus in culture; type: cell-based; settings: for EC50: Vero E6 cells, three days, XTT, read-out: EC50, CPE reduction, SARS-CoV-2 in Vero E6 cells
[2] = test system: VeroE6 cells; assay: Cytotoxicity in mock-infected VeroE6 cells (XTT); type: cell-based, African green monkey
[3] = test system: SARS-CoV-2; assay: microbe, parasite or virus in culture; type: cell-based; settings: for EC50: Calu-3 cells, three days, XTT, read-out: EC50, CPE reduction, SARS-CoV-2 in Calu-3 cells
[4] = test system: HCoV-229E; assay: CPE reduction assay, HCoV-229E in HEL cells; type: cell-based; settings: for EC50: MTS, mean of 2–3 tests
[5] = test system: HEL cells; assay: Cytotoxicity in mock-infected HEL cells (MTS); type: cell-based, human; settings: mock-infected HEL cells, MTS, mean of 2–3 tests
[6] = test system: SARS-CoV-2 pseudovirus; assay: microbe, parasite or virus in culture; type: cell-based; settings: for EC50: Vero cells, luciferase signal, mean ± SEM of 3 tests, read-out: EC50, inhibition of SARS-CoV-2 pseudovirus entry in Vero cells; for Inhibition of pseudovirus entry in Vero cells (in words): cathepsin-dependent endosomal pathway
[7] = test system: SARS-CoV-2 pseudovirus; assay: microbe, parasite or virus in culture; type: cell-based; settings: for EC50: A549-AT cells (ACE2 and TMPRSS2), luciferase signal, mean ± SEM of 3 tests, read-out: EC50, inhibition of SARS-CoV-2 pseudovirus entry in A549-AT cells; for Inhibition of pseudovirus entry in A549-AT cells (in words): TMPRSS2-mediated uptake
[8] = biological target: T1, human recombinant cathepsin L (Homo sapiens, UniProt P07711); assay: biochemical; type: biochemical
T1 construct: made in house; host or cells: Escherichia coli
Protocol: Cathepsin L inhibition was assessed as reported. Briefly, human recombinant cathepsin L was expressed in Escherichia coli[33]. Enzymatic activity was determined in 100 mM acetate buffer (pH 5.5) containing 0.1% PEG 8000, 5 mM cysteine and 1.5 mM EDTA. The enzyme was first activated in assay buffer for 5 min at 37 °C, after which it was added to the wells of a black microplate containing the Z-Phe-Arg-AMC substrate (Bachem) and compounds. Formation of the fluorescent cleavage product was monitored for 50 min at 37 °C, using a Tecan Infinit M1000 spectrofluorimeter set at 460 nm emission and 380 nm excitation wavelength. All assay mixtures contained 5% (v/v) DMSO and 0.01% Triton X-100 to prevent false-positive inhibition due to formation of compound aggregates. All measurements were performed in triplicate and repeated twice. The relative inhibition was calculated using the equation: Relative inhibition (%) = 100(1 − vi/vo), where vi and vo designate the reaction velocities in the presence and absence of inhibitor, respectively. IC50 values were determined from nine data points at different inhibitor concentrations.

[9] = biological target: SARS-CoV-2 3CL^Pro (Severe acute respiratory syndrome coronavirus 2, UniProt P0DTD1); assay: biochemical; type: biochemical
[10] = test system: E. faecalis; assay: MIC, broth microdilution; type: cell-based
[11] = test system: S. aureus; assay: MIC, broth microdilution; type: cell-based
[12] = test system: S. haemolyticus; assay: MIC, broth microdilution; type: cell-based
[13] = test system: S.pyogenes; assay: MIC, broth microdilution; type: cell-based
[14] = test system: E. faecium; assay: microbe, parasite or virus in culture; type: cell-based
[15] = test system: S. epidermidis; assay: microbe, parasite or virus in culture; type: cell-based
[16] = test system: Klebsiella pneumoniae ST258 clone K 160/09; assay: MIC against Gram-negative strain; settings: Klebsiella pneumoniae ST258 clone K 160/09
[17] = test system: Pseudomonas aeruginosa ATCC 27853; assay: MIC against Gram-negative strain; settings: ATCC27853
[18] = test system: Acinetobacter baumannii ATCC BAA1605; assay: MIC against Gram-negative strain; settings: Acinetobacter baumannii ATCC BAA1605
[19] = test system: Escherichia coli ATCC 25218; assay: MIC against Gram-negative strain; settings: ATCC25218
[20] = test system: Calu-3 cells; assay: Cytotoxicity in mock-infected Calu-3 cells (XTT); settings: read-out: CC50, Calu-3 cells, three days
[21] = Cytotoxicity in mock-infected VeroE6 cells (XTT); type: cell-based, African green monkey; settings: African green monkey; mock-infected Vero E6 cells, three days, XTT
[22] = Cytotoxicity in mock-infected HEL cells (MTS); type: cell-based, human; settings: human; mock-infected HEL cells, MTS, mean of 2–3 tests
[23] = in vitro; settings: human
[24] = Severe acute respiratory syndrome-related coronavirus

T1 sequence (P07711 114-333): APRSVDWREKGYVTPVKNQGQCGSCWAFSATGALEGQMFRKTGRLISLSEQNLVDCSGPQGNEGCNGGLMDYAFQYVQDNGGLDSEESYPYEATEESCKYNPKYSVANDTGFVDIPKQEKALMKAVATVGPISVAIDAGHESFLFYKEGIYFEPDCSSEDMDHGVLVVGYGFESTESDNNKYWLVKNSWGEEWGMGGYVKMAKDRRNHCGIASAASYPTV

With teicoplanin [reference compound] the EC50 [1] was 16 ± 1.7 µM, the CC50 ([2]; mock-infected Vero E6 cells, three days, XTT) was greater than 100 µM and the “Activity against SARS-CoV-2 in Calu-3 cells (in words)” value [3] was “inactive; also recorded: does not inhibit”. For the same compound, the EC50 [3] was greater than 100 µM, the “Activity against HCoV-229E CPE (in words)” value [4] was “inactive” and the EC50 [4] was greater than 100 µM. The CC50 [5] was greater than 100 µM, the EC50 [6] was 21 ± 5 µM and the “Inhibition of pseudovirus entry in Vero cells (in words)” value [6] was “moderately active”. For the same compound, the EC50 [7] was greater than 125 µM, the “Inhibition of pseudovirus entry in A549-AT cells (in words)” value [7] was “inactive” and the “Cathepsin L inhibition (in words)” value [8] was “inactive”. For the same compound, the “Cathepsin L inhibition at 50 µM” value ([8]; at 50 µM) was 5% at 50 µM, the “3CL^Pro % inhibition at 200 µM” value ([9]; at 200 µM) was 13 ± 8% and the “Average MIC value” ([10]; E. faecalis VAN^R,TEI^R/VanA, 1 strain) was greater than 64 µg/mL. The “Average MIC value” ([10]; E. faecalis VAN^S, TEI^S, 2 strains) was 0.25 µg/mL, the MIC value ([10]; E.faecalis JH2-2) was 0,25 µg/ml and the MIC value ([10]; E.faecalis OG1RF) was 0,25 µg/ml. The MIC value ([10]; E.faecalis V583, VAN,TEI/VanA) was greater than 64 µg/mL, the MIC value ([11]; S. aureus 73OL, MRSA) was 0,5 µg/ml and the MIC value ([11]; S. aureus 214OL, MRSA) was 2 µg/mL. For the same compound, the MIC value ([11]; S. aureus 1041OL, MRSA) was 1 µg/mL, the MIC value ([11]; S. aureus A6918, MRSA) was 1 µg/mL and the MIC value ([11]; S. aureus A6919, MRSA) was 0,5 µg/ml. The MIC value ([11]; S. aureus ATCC29213, MSSA) was 0,5 µg/ml, the “Average MIC value” ([11]; S. aureus CA-MRSA, 1 strain) was 0.125 µg/mL and the “Average MIC value” ([11]; S. aureus MRSA, 7 strains) was 1.43 µg/mL. The MIC value ([11]; S. aureus MSSA476, MSSA) was 0,25 µg/ml, the “Average MIC value” ([11]; S. aureus MSSA, 4 strains) was 0.375 µg/mL and the MIC value ([11]; S. aureus Mu50, MRSA) was 4 µg/mL. For the same compound, the MIC value ([11]; S. aureus N315, MRSA) was 1 µg/mL, the MIC value ([11]; S. aureus Newman, MSSA) was 0,25 µg/ml and the MIC value ([11]; S. aureus SA564, MSSA) was 0,5 µg/ml. For the same compound, the MIC value ([11]; S. aureus USA300, CA-MRSA) was 0,125 µg/ml, the “Average MIC value” ([12]; S. haemolyticus mecA, 6 strains) was 112 µg/mL and the MIC value ([12]; S.haemolyticus DALB_R1, mecA) was 128 µg/mL. It also gave an MIC value ([12]; S.haemolyticus DALB_R2, mecA) of 256 µg/mL, an MIC value ([12]; S.haemolyticus DALB_R3, mecA) of 32 µg/mL and an MIC value ([12]; S.haemolyticus DALB_R4, mecA) of 64 µg/mL. The MIC value ([12]; S.haemolyticus DALB_R5, mecA) was 128 µg/mL, the MIC value ([12]; S.haemolyticus ORI_R1, mecA) was 64 µg/mL and the MIC value ([13]; S.pyogenes H232) was 0,03125 µg/ml. For the same compound, the MIC value ([13]; S.pyogenes H550) was 0,25 µg/ml, the MIC value ([13]; S.pyogenes H578) was 0,25 µg/ml and the “Average MIC value” ([14]; E. faecium VAN^R,TEI^R/VanA, 8 strains) was greater than 64 µg/mL. The “Average MIC value” ([14]; E. faecium VAN^S, TEI^S, 1 strain) was 0.5 µg/mL, the MIC value ([14]; E.faecium E335, VAN,TEI,LNZ/VanA) was greater than 64 µg/mL and the MIC value ([14]; E.faecium E355, VAN,TEI,LNZ/VanA) was greater than 64 µg/mL. It also gave an MIC value ([14]; E.faecium E832, VAN,TEI,LNZ/VanA) greater than 64 µg/mL, an MIC value ([14]; E.faecium E854, VAN,TEI,LNZ/VanA) greater than 64 µg/mL and an MIC value ([14]; E.faecium E859, VAN,TEI,LNZ/VanA) greater than 64 µg/mL. For the same compound, the MIC value ([14]; E.faecium E1114, VAN,TEI,LNZ/VanA) was greater than 64 µg/mL, the MIC value ([14]; E.faecium E1131, VAN,TEI,LNZ/VanA) was greater than 64 µg/mL and the MIC value ([14]; E.faecium E1132, VAN,TEI,LNZ/VanA) was greater than 64 µg/mL. For the same compound, the MIC value ([14]; E.faecium TX0016) was 0,5 µg/ml, the “Average MIC value” ([15]; S. epidermidis mecA, 6 strains) was 26.7 µg/mL and the MIC value ([15]; S.epidermidis ORI_R1, mecA) was 32 µg/mL. For the same compound, the MIC value ([15]; S.epidermidis ORI_R2, mecA) was 16 µg/mL, the MIC value ([15]; S.epidermidis ORI_R3, mecA) was 32 µg/mL and the MIC value ([15]; S.epidermidis ORI_R4, mecA) was 16 µg/mL. It also gave an MIC value ([15]; S.epidermidis TEI_R1, mecA) of 32 µg/mL, an MIC value ([15]; S.epidermidis TEI_R2, mecA) of 32 µg/mL and an MIC [16] of 256 µg/mL. For the same compound, the MIC [17] was 256 µg/mL, the MIC [18] was 128 µg/mL and the MIC [19] was 256 µg/mL. It also gave a CC50 [20] greater than 100 µM.

With `O=C(O)CCC(F)(F)C(F)(F)C(F)(F)C(F)(F)C(F)(F)C(F)(F)C(F)(F)C(F)(F)F` [Compound 14] the EC50 ([1]; Severe acute respiratory syndrome coronavirus 2, Vero C1008, 72 h) was 19 ± 1.5 µM, the “Reduction of the CPE of SARS-CoV-2 in VeroE6 cells (in words)” value ([1]; VeroE6 cells) was “did show antiviral activity” and the CC50 [21] was 39 ± 1.4 µM. The “Toxicity in VeroE6 cells (in words)” value ([2]; VeroE6 cells) was “quite toxic”, the “Activity against SARS-CoV-2 in Calu-3 cells (in words)” value [3] was “active” and the EC50 ([3]; Severe acute respiratory syndrome coronavirus 2, 72 h) was 46 ± 1.9 µM. The EC50 ([4]; Human coronavirus 229E) was 69 µM, the CC50 [22] was greater than 100 µM and the EC50 [6, 24] was 13 ± 5 µM. The “Inhibition of pseudovirus entry in Vero cells (in words)” value [6] was “inhibited both entry routes”, the “Inhibition of pseudovirus entry in A549-AT cells (in words)” value [7] was “inhibited both entry routes” and the EC50 [7, 24] was 24 ± 6 µM. The IC50 ([8]; pH 5.5, Z-Phe-Arg-AMC substrate, read-out: Cathepsin L IC50) was greater than 500 µM, the inhibition at 200 µM [9] was 12 ± 2% and the CC50 [23] was roughly 53 µM.
